Values of other authors as cited in patent US20240074994A1, “COMPOSITION OF CHLORHEXIDINE” (priority 2022, published 2024).

Columns and labels:
HSV-1 [1] = details: 0.2% applied topically onto HSV-1 infected forehead skin of mice
HSV-1 [2] = details: Vero cell monolayers

Q: With Chlorhexidine as the substance, how does the “development of viral lesions” value (HSV-1 [1]) read?
A: Its value is “moderately reduced”.

Q: What about the “viral titers in the skin and trigeminal ganglia” value (HSV-1 [1]) of the same substance?
A: Its value is “moderately reduced”.

Q: And the “cytolytic activity of HSV-1” value (HSV-1 [2])?
A: The value was “moderately, but significantly, inhibited”.

Q: What about the “replication of HSV-1” value (HSV-1 [2]) of the same substance?
A: The value was “moderately, but significantly, inhibited”.
